Source: PubChem BioAssay AID1755 (Sanford-Burnham Center for Chemical Genomics, 2009)
Where “and” joins values, the source holds several entries; their conditions need not be identical. Equal values may be shown once. Calls of active or inactive are those of the source. The rule behind the calls is not given here.

Tested on: MDA-MB-435 TRAIL-induced apoptosis potentiation, viability
Assay: TRAIL apoptosis potentiation, viability loss, SAR follow-up, cell-based, MDA-MB-435, analog series (AID 1755)

Compound	IC50
CCSc1cc(N2CCCC2)nc(-c2ccc(Cl)cc2)n1	> 10 µM (inactive)
CSc1nc(-c2ccccc2)nc(-c2ccccc2)n1	> 10 µM (inactive)
CC(Sc1nc(-c2ccccc2)cc(C(F)(F)F)n1)C(=O)N1CCCC1 (stereo not drawn)	> 10 µM (inactive)
COc1cc(-c2ccccc2)[nH]c(=S)n1	> 10 µM (inactive)
CSc1nc(-c2ccc(C)cc2)nc(C(Cl)Cl)n1	4.81 µM and 3.27 µM
CSc1nc(-c2ccccc2)nc(-c2ccccc2OC(C)=O)n1	> 10 µM (inactive)
CSc1nc(-c2ccccc2)nc(C(C)C)n1	> 10 µM (inactive)
CCSc1nc(-c2ccccc2)cc(=O)[nH]1	> 10 µM (inactive)
